pIC50: −log10 of the molar value.
Columns and labels:
[1] = system: K562 leukemia cells; assay: MTT assay, in vitro inhibitory activity on cells; assay type: cell-based; conditions: Homo sapiens, typically 48 hours, read-out: IC50 K562 Chronic myelogenous leukemia cells
Excerpt: (§1) In this example, MTT assay was used to detect in vitro inhibitory activity of the compounds prepared according to the above examples on the cells.
(§2) Dimethyl sulfoxide (DMSO) is capable of dissolving formazan in cells, and absorbance value can be measured at a wavelength of 490 nm by an enzyme-linked immunometric meter, which reflects the number of living cells. Within a certain range of the number of cells, the amount of MTT crystals formed is proportional to the number of living cells.
(§3) 2. Culturing in a 37° C., 5% CO2 incubator and keeping the cells adhering to the walls of the wells.
(§4) 4. Carefully removing the supernatant, gently washing with PBS and discarding the supernatant again.
(§5) 6. Terminating culturing and carefully discarding the medium in each well. 7. Adding 150 μl dimethyl sulfoxide into each well, shaking for 10 minutes at low speed in a shaker, to make crystals fully dissolved.
(§6) 8. Measuring the absorbance of each well at 490 nm by an enzyme-linked immunometric meter.

[2] = system: MDA-MB-231 human breast cancer cells; assay: MTT assay, in vitro inhibitory activity on cells; assay type: cell-based; conditions: typically 48 hours
Excerpt: as §1, §2, §3, §4, §5, §6

[3] = system: Ovcar-3 human ovarian cancer cells; assay: MTT assay, in vitro inhibitory activity on cells; assay type: cell-based; conditions: typically 48 hours
Excerpt: as §1, §2, §3, §4, §5, §6

[4] = system: Saos-2 human osteosarcoma cells; assay: MTT assay, in vitro inhibitory activity on cells; assay type: cell-based; conditions: typically 48 hours
Excerpt: as §1, §2, §3, §4, §5, §6

[5] = target: Human ABL1 (T315I) (Homo sapiens (Human), UniProt P00519, T315I); assay: ABL1 (T315I) kinase activity assay ([γ-33P] ATP, Abltide); assay type: biochemical; conditions: 1.0 μM ATP, 5.0 μM Abltide, 120 minutes
Description: In the experimental example, the compounds prepared according the examples of the present invention were tested for the ability to inhibit ABL (T315I) kinase activity. […] Kinase activity was determined according to the manufacturer's instructions. Peptide substrate is Abltide ([…]), purchased from Millipore Corporation, USA. Ion exchange chromatography paper P81 (ion exchange filter paper) was purchased from Whatman Company, UK. [γ-33P] ATP was purchased from Perkin Elmer Company. […] [γ-33P] ATP was added at room temperature, with final concentration of 1.0 μM, and the reaction was performed for 120 minutes. 20 μl aliquots were transferred onto the ion exchange chromatography paper P81. […] Finally, γ-33P radioactivity was measured.

[6] = system: MEG-01 human megakaryocyte leukemia cells; assay: CellTiter-Glo cell viability assay, Bcr-Abl-positive cells; conditions: MEG-01, 72 h, read-out: IC50 MEG-01
Description: (§7) The resulting solutions were 10-fold serially diluted and formulated into 10 concentrations.
(§8) MEG-01 human megakaryocyte leukemia cells and KU812 human peripheral blood basophilic leukocytes, purchased from ATCC Company, USA.
(§9) The peripheral wells were filled with sterile PBS;
(§10) 2) Adding 10 μl of 5× concentration gradient of the tested compound, and adding 10 μl medium containing 0.5% DMSO into the blank control wells, in which the concentration of DMSO was 0.1%;
(§11) 3) Incubating the cells in a 37° C./5% CO2 incubator;
(§12) 4) Adding 30 μl Cell Titer-Glo® Reagent 72 hours after adding the compound;
(§13) 5) Incubating in a 37° C./5% CO2 incubator for 10 minutes; and centrifuging at low speed and then measuring chemiluminescence values on a PHERAstar microplate reader.
(§14) 6) Calculating cell viability (Cell Viability=(RLUsample/RLUnegative)×100%, wherein RLUsample was RLU (Relative Light Units) value of the well added with the compound and RLUnegative was RLU value of the well without the compound (i.e., cell control, which was treated with the same concentration of DMSO)). Data were processed by using a four-parameter logistic fitting module in Graphpad Prism 4.0 software to calculate IC50.

[7] = system: KU812 human peripheral blood basophilic leukocytes; assay: as above; conditions: KU812, 72 h, read-out: IC50 KU812
Description: as §7, §8, §9, §10, §11, §12, §13, §14

Structure (SMILES) | pIC50 [1] | pIC50 [2] | pIC50 [3] | pIC50 [4] | pIC50 [5] | pIC50 [6] | pIC50 [7]
Cc1ccc(C(=O)Nc2ccc(CN3CCN(C)CC3)c(C(F)(F)F)c2)cc1C#Cc1cn(C)c(-c2ncc(C(F)(F)F)[nH]2)n1 [Example 9, 4-methyl-3-((1-methyl-5′-trifluoromethyl-1H,1′H-[2,2′-diimidazol]-4-yl)ethynyl)-N-[4-((4-methylpiperazin-1-yl)methyl)-3-trifluoromethylphenyl]benzamide] | 6.48 | 5.29 | 5.19 | 5.94 | 8.19 |  | 
Cc1ccc(C(=O)Nc2ccc(CN3CCN(C)CC3)c(C(F)(F)F)c2)cc1C#Cc1ccn2nc(N)nc2c1 [Example 4, 3-((2-amino-[1,2,4]triazolo[1,5-a]pyridin-7-yl)ethynyl)-4-methyl-N-[4-((4-methylpiperazin-1-yl)methyl)-3-trifluoromethylphenyl]benzamide] | 4.87 | 5.97 |  |  |  | 8.48 | 9.10
CNc1nc2cc(C#Cc3cc(C(=O)Nc4ccc(CN5CCN(C)CC5)c(C(F)(F)F)c4)ccc3C)ccn2n1 [Example 5, 3-((2-methylamino-[1,2,4]triazolo[1,5-a]pyridin-7-yl)ethynyl)-4-methyl-N-[4-((4-methylpiperazin-1-yl)methyl)-3-trifluoromethylphenyl]benzamide] | 5.17 | 5.67 |  |  | 8.64 | 8.75 | 9.20
Cc1ccc(C(=O)Nc2ccc(CN3CCN(C)CC3)c(C(F)(F)F)c2)cc1C#Cc1ccn2nc(N(C)C)nc2c1 [Example 6, 3-((2-dimethylamino-[1,2,4]triazolo[1,5-a]pyridin-7-yl)ethynyl)-4-methyl-N-[4-((4-methylpiperazin-1-yl)methyl)-3-trifluoromethylphenyl]benzamide] | 5.38 |  |  |  | 7.40 |  | 
Cc1ccc(C(=O)Nc2ccc(CN3CCN(C)CC3)c(C(F)(F)F)c2)cc1C#Cc1ccc(-c2ncc[nH]2)nc1 [Example 19, 4-methyl-3-((2-(1H-imidazol-2-yl)pyridin-5-yl)ethynyl)-N-[4-((4-methylpiperazin-1-yl)methyl)-3-trifluoromethylphenyl]benzamide] | 5.34 | 5.52 |  |  | 8.17 |  | 
Cc1ccc(C(=O)Nc2ccc(CN3CCN(C)CC3)c(C(F)(F)F)c2)cc1C#Cc1ccc(-c2ncc(C(F)(F)F)[nH]2)nc1 [Example 18, 4-methyl-3-((2-(5-trifluoromethyl-1H-imidazol-2-yl)pyridin-5-yl)ethynyl)-N-[4-((4-methylpiperazin-1-yl)methyl)-3-trifluoromethylphenyl]benzamide] | 5.84 |  |  |  | 7.24 |  | 
Cc1ccc(C(=O)Nc2ccc(CN3CCN(C)CC3)c(C(F)(F)F)c2)cc1C#Cc1cnc2[nH]ccc2n1 [Example 3] | 5.20 | 6.74 | 5.55 | 6.42 | 8.67 | 8.86 | 9.40

Reference: US9255107B2 (NANJING SANHOME PHARMACEUTICAL CO., LTD., priority 2012, dated 2016)
